Experimental data from patent US20010049389A1, “Arthropod-controlling composition” (priority 2000, published 2001).

Tests used:
Format in all cases: in vivo
[1] = tested on: adult German cockroaches (Blattella germanica); assay: Test Example 5: heating fumigant (ceramic plate) in 5.8 m^3 chamber, German cockroaches; conditions: heating fumigant (Preparation example 24, 500 mg) at about 200° C. in 5.8 m^3 chamber
Protocol: On the bottom of a cubic chamber having 1.8 m of side (5.8 m^3), the heating fumigant (ceramic plate) obtained in Preparation example 24 with an electric heater was set in the center. Two plastic cups were put at two corners in the chamber, wherein each cup has ten (5 males and 5 females) adult German cockroaches (Blattella germanica) therein. Two hours after turning on an electric current, the ceramic plate was heated to about 200° C. (200±5° C.) and the active ingredient was vaporized. The heating temperature was estimated by measuring a surface temperature of the ceramic plate with radiation pyrometer (TR-0506C produced by Minolta Company) in advance. Then, the knocked-down cockroaches were counted and the knock-down percentage was calculated. Further, the cockroaches were transferred to a clean plastic cup and given foods and water. The mortality was observed after 7 days.

[2] = tested on: adult American house dust mites (Dermatophagoides farinae); assay: Test Example 10: treated drawing paper, American house dust mites; conditions: drawing paper 800 mg/m^2, 25° C., 65% humidity, 24 hours
Protocol: On a black drawing paper having 38 mm in diameter, 0.2 ml of an acetone solution of the Pyrone Compound was added dropwise and air-dried. The treated dosage was 800 mg/m^2. The drawing paper was set on an aluminum plate having 38 mm in diameter and adhesives were put on the edge to prevent for tested mites to escape. About 30 adult American house dust mites (Dermatophagoides farinae) were released on the drawing paper and kept at 25° C. and 65% of humidity for 24 hours. After that, the mortality was observed. The result was 100%.

[3] = tested on: adult pill bugs (Armadillidium vulgare); assay: Test Example 12: oil-based aerosol spray, pill bugs; conditions: about 450 mg of 1.0% oil-based aerosol sprayed, after 3 days
Protocol: According to Preparation examples 10-14, 1.0% oil-based aerosol of the Pyrone Compound was obtained. A container (8.75 cm in diameter, 7.5 cm in height, bottom covered 16-mesh iron net and inside wall painted butter for preventing tested pill bugs to escape) having 5 adult pill bugs (Armadillidium vulgare) therein was set on the bottom center of a glass cylinder having 20 cm in diameter and 60 cm in height. About 450 mg of the above oil-based aerosol were sprayed to the pill bugs from the upper part of the cylinder. After 30 seconds, the pill bugs were taken out and put into a clean plastic cup having soil and dead leaves therein. The pill bugs were given food and water and observed after 3 days. The tests were repeated twice. The mortality was 100%. Reference compound was also tested and the mortality was 40%.

ants (Formica japonica) = assay: Test Example 14: oil-based aerosol spray, ants; conditions: about 450 mg of 1.0% oil-based aerosol sprayed, after 2 days
Protocol: According to Preparation examples 10-14, 1.0% oil-based aerosol of the Pyrone Compound was obtained. In a 200 cc plastic cup having inside wall painted talc for preventing tested ants to escape, about 30 g of soil were set and 10 ants (Formica japonica) were release thereon. The plastic cup was set on the bottom center of a glass cylinder having 20 cm in diameter and 60 cm in height. About 450 mg of the above oil-based aerosol were sprayed to the ants from the upper part of the cylinder. After 10 seconds, the ants were taken out and put into a clean plastic cup having a piece of watermelon peel as food therein. After 2 days, the mortality was observed and the result was 70%.

[4] = tested on: 4-instar larvae of tobacco cutworm (Spodoptera litura); assay: Test Example 17: treated cabbage leaf disc, feeding damage by tobacco cutworm; conditions: 50 μg on cabbage leaf disc of 1 cm diameter, after 24 hours, 5 repetitions
Protocol: (§1) A methanol solution (50 μg/20 μl) of the Pyrone Compound was prepared. The solution (20 μl) was painted on a cut leaf disc of cabbage (1 cm in diameter). After vaporizing methanol, the leaf disc was put on a filter paper, which was wet with 1 ml of water, in Petri dish making the painted surface upside. Two 4-instar larvae of tobacco cutworm (Spodoptera litura) were put in the Petri dish. After 24 hours, the damage of the leaf disc was observed and compared with the test result of the non-treated disc. The tests were repeated 5 times.

[5] = tested on: 3-instar larvae of diamondback moth (Plutella xylostella); assay: Test Example 18: treated cabbage leaf disc, feeding damage by diamondback moth; conditions: 50 μg on cabbage leaf disc of 1 cm diameter, after 24 hours
Protocol: as §1
The same procedure was performed as in Test example 17 except that five 3-instar larvae of diamondback moth (Plutella xylostella) was used in place of tobacco cutworm (Spodoptera litura).

SMILES: Cc1cc(O)c(C(=O)CC(C)C)c(=O)o1 [The Pyrone Compound]
- Mortality (%) ([1]; after 7 days): 100%
- Knock-down percentage (%) ([1]; two hours): 100%
- mortality [2]: 100%
- mortality [3]: 100%
- mortality (ants (Formica japonica)): 70%
- damage of the leaf disc compared with the non-treated disc [4]: clearly smaller
- damage of the leaf disc compared with the non-treated disc [5]: clearly smaller
